# Measurements reported in US7470683B2, “Tetracyclic compounds” (Les Laboratoires Servier, priority 2006, dated 2008).
# Legend:
# rat [1] = test: Ultrasonic vocalisation test in the rat (anxiolytic properties); format: in vivo; conditions: for Duration of ultrasonic vocalisations (s) mean ± s.e.m.: ten-minute recording, carrier 254.3 ± 42.1
# From the text: When a rat is placed in an environment previously associated with an unpleasant experience (electric shocks to the paws), its anxiety is shown by the emission of inaudible cries (or ultrasonic vocalisations).
# Standard boxes (Coulbourn Instruments), placed in sound-attenuating ventilated enclosures, are provided with a floor composed of electrifiable metal bars (shock generator and scrambler, Med Associates Inc) and with a microphone located in the centre of the ceiling. The ultrasounds are converted into an audible range (bat detector, Buitenbedrijf). The signals modified in that manner are filtered and then processed (RTS software, Engineering Design). The spectrograms obtained are recorded on DAT tapes.
# Male rats of the Wistar strain, weighing 180-200 g on their arrival, are housed in cages of four with free access to food and water, from five days before the start of the study until its end. The procedure employed is divided up into three successive stages separated by 24 hours and called training, selection and test. During the training session, the animals are placed singly in the boxes, where they receive six electric shocks (0.8 mA, 8 s) randomly spaced over a period of seven minutes. Selection comprises placing each animal in a box for two minutes, where they receive a single shock, and putting them back in the box thirty minutes later for a ten-minute session of recording the ultrasonic vocalisations; those animals whose vocalisations last less than 90 seconds are excluded from the remainder of the experiment. The test phase proceeds in a similar manner to the selection stage, with the products or the carrier additionally being administered at the end of the two-minute session. The effect of the products is statistically evaluated by analysis of variance over repeated measurements, followed by a Dunnett's test for comparison of the effects of different doses with the effect of the carrier (distilled water).
# rat [2] = test: Forced swimming test in the rat (antidepressive properties); format: in vivo; conditions: for Immobility (sec) mean ± s.e.m.: 30 min before 5-min test, carrier 174.3 ± 9.1
# From the text: The forced swimming test (Porsolt R. et al, Eur. J. Pharmacol., 1978, 47, 379-91) is a behavioural test which comprises inducing a state of “despair” in the rat, by placing the naive animal in an enclosure full of water, from which it cannot escape, for a period of fifteen minutes. For the first five to ten minutes, the rat struggles vigorously but finally adopts an immobile posture during the last part of the test. Placed in the same enclosure on the following day, the animal remains immobile for most of the test (5 minutes' duration). Antidepressants reduce the duration of immobility of the rat during the test.
# The experiment is carried out over two days, with a 24-hour interval, on rats having an average weight of 170 g, housed the day before in individual cages, with free access to food and drink.
# On the first day, each rat is placed for fifteen minutes in a glass cylinder (20 cm diameter×40 cm high) filled to a height of 15 cm with water maintained at 25° C. On the second day, the animal is again placed in a cylinder for a period of five minutes; the total period of immobility (in seconds) of the rat is measured. The product or the solvent is administered to the animal thirty minutes before the beginning of the test. The effect of the products is statistically evaluated by analysis of variance over repeated measurements, followed by a Dunnett's test for comparison of the effects of different doses with the effect of the carrier (distilled water).
# [3] = system: rats having a unilateral lesion of the Substantia nigra; test: Rotations induced by dopaminergic agonists in rats having a unilateral 6-OH-DA lesion of the Substantia nigra; format: in vivo, rat; conditions: for Contralateral rotations mean ± s.e.m.: recorded for one hour, carrier 53.8 ± 12.8
# [4] = system: presynaptic dopaminergic autoreceptor; test: Presynaptic dopaminergic autoreceptor activation: unitary extracellular electrical activity in the ventral tegmentum area of the rat; format: in vivo; conditions: cumulative doses, relative to basal activity = 100%, mean ± s.e.m., n = 5
# Experimental: Test Recording the Unitary Extracellular Electrical Activity in the Ventral Tegmentum Area of the Rat
# Administration of a dopaminergic agonist decreases neuron discharge frequency in dose-dependent manner. This effect is reversed by haloperidol, a dopaminergic antagonist.
# The rats are anaesthetised using chloral hydrate (400 mg/kg, i.p.) and placed in a stereotactic apparatus (Unimécanique, France) after catheterisation of the femoral vein. The level of anaesthesia is maintained by i.p. administration of chloral hydrate every hour; rectal temperature is held at 37±1° C. by means of a thermostatically controlled heated blanket. A tungsten microelectrode (10 MΩ, 1 μm) is advanced, using an electronic microdrive (Unimécanique, France), into the ventral tegmentum area (AP: −5.5/bregma; L: 0.7; H: 7.0-8.5/dura; Paxinos and Watson atlas, 1986). The potentials of dopaminergic cells are recognised by their morphology (triphasic potentials +/−/+, of a duration greater than 3 msec), their discharge rhythm, whether regular or in bursts of decreasing amplitude, and their discharge frequency, which is from 2 to 8 Hz. A single cell per animal is used for recording.
# After a period ≧5 minutes (basal activity) and an initial injection of carrier (distilled water to which a few drops of dilute lactic acid have been added; pH adjusted to 5 using 1N NaOH), the products of the invention are administered intravenously in cumulatively increasing doses at intervals of 2-3 minutes.
# Data acquisition is performed by the Spike2 software package (Cambridge Electronic Design, England). The discharge frequency is measured over one minute at the maximum change between each injection and is expressed as the percentage change with respect to the basal activity (averaged over the 5 minutes preceding the first treatment), which is defined as 100%. The effect of the products is statistically evaluated by analysis of variance over repeated measurements, followed by a Dunnett's test for comparison of the effects of different doses with the effect of the carrier (distilled water).
# [5] = molecular target: T1, human dopamine D2 receptor (Homo sapiens, UniProt P14416); test: Human D2 receptor binding study ([125I]-iodosulpride, CHO cell membranes); conditions: [125I]-iodosulpride 0.1 nM, read-out: pKi hD2 (converted)
# T1 construct: expressed in transfected cells; membranes
# T1 sequence (P14416 whole entry): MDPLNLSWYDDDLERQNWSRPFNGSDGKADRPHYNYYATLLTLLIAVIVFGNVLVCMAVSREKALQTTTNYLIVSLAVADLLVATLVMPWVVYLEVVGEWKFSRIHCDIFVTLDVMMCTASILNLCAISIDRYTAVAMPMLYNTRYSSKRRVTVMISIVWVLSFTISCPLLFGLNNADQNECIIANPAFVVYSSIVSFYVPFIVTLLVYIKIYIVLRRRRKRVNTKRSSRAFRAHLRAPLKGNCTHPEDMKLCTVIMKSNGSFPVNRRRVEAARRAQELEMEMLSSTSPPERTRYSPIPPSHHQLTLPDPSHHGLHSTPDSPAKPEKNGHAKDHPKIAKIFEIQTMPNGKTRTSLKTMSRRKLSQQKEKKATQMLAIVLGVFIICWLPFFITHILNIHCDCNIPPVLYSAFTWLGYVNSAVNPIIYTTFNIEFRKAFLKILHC
# Experimental: (§1) CHO (Chinese Hamster Ovary) cells are stably transfected with the gene encoding the human dopamine D2 or D3 receptor, in accordance with methods known from the literature. The native cells are deficient in the enzyme DHFR (DiHydroFolate Reductase). […] The transfections are carried out using Lipofectin (Gibco). The CHO cells co-transfected with the human D2 receptor and the phleomycin resistance gene are selected for their resistance to the presence of that antibiotic in the culture medium. The cells transfected with the human D3 receptor are selected, in a medium lacking hypoxanthine/thymidine, in the presence of methotrexate. The compositions of the culture media used are: for CHO-D2, DMEM (Dulbecco's Modified Eagle Medium) supplemented with 10% foetal calf serum and hypoxanthine/thymidine; and for CHO-D3, DMEM supplemented with 10% dialysed foetal calf serum. The cells are harvested at confluence and the membranes are then prepared.
# After a few minutes in the presence of 0.2% trypsin, the cells are collected and centrifuged at 2,000 g for 5 minutes. The cell mass, which is re-suspended in 10 mM Tris-HCl buffer pH 7.5 containing 5 mM MgSO4, is then homogenised using a Polytron®. The homogenate is then centrifuged at 50,000 g for 15 minutes, and the sediment is re-suspended by gentle sonication in an incubation buffer having the composition: 50 mM Tris-HCl pH 7.5 containing 120 mM NaCl, 5 mM KCl, 2 mM CaCl2, 5 mM MgCl2. The membranes are then divided into aliquots and stored at −80° C. until the day of the experiment.
# The concentration ranges of each compound include at least seven points determined in triplicate. Each experiment is repeated at least twice.
# The incubation, which lasts for thirty minutes at 30° C., is terminated by rapid filtering through a Brandle apparatus, followed by three consecutive rinsings with Tris-HCl buffer pH 7.4 containing 120 mM NaCl. The filters are collected and then subjected to counting using a gamma counter.
# The results are expressed in the form of pKi (pKi=−logKi).
# [6] = molecular target: T2, human dopamine D3 receptor (Homo sapiens, UniProt P35462); test: Human D3 receptor binding study ([125I]-iodosulpride, CHO cell membranes); conditions: [125I]-iodosulpride 0.2 nM, read-out: pKi hD3 (converted)
# T2 construct: expressed in transfected cells; membranes
# T2 sequence (P35462 whole entry): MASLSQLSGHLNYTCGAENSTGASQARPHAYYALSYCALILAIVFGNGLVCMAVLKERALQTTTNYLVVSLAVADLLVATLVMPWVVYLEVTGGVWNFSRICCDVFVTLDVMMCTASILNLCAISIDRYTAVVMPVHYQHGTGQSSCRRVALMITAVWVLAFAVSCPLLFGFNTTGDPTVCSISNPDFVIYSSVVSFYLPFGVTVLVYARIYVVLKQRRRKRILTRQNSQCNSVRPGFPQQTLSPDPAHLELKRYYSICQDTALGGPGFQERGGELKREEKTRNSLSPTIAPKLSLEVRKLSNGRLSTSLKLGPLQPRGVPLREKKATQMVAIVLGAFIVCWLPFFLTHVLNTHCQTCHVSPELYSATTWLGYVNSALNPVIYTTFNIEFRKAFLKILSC
# Experimental: as §1
# After a few minutes in the presence of 0.2% trypsin, the cells are collected and centrifuged at 2,000 g for 5 minutes. The cell mass, which is re-suspended in 10 mM Tris-HCl buffer pH 7.5 containing 5 mM MgSO4, is then homogenised using a Polytron®. […]
# The concentration ranges of each compound include at least seven points determined in triplicate. […]
compound,measurement,setting,value
"CCCN1CCO[C@@H]2c3cc4c(cc3CC[C@H]21)CNC4=O (single isomer, unassigned) [Example 2]",Duration of ultrasonic vocalisations (s) mean ± s.e.m.,rat [1]; 0.0025 mg/kg s.c.,274.0 ± 59.0 s
same,Duration of ultrasonic vocalisations (s) mean ± s.e.m.,rat [1]; 0.04 mg/kg s.c.,28.0 ± 5.6 s
same,Duration of ultrasonic vocalisations (s) mean ± s.e.m.,rat [1]; 0.63 mg/kg s.c.,22.0 ± 3.2 s
same,Effect on duration of vocalisations (in words),rat [1]; doses of 0.04 and 0.63 mg/kg s.c.,substantial reduction in the duration of vocalisations
same,Immobility (sec) mean ± s.e.m.,rat [2]; 0.02 mg/kg s.c.,159.4 ± 7.9 s
same,Immobility (sec) mean ± s.e.m.,rat [2]; 0.04 mg/kg s.c.,122.7 ± 21.2 s
same,Immobility (sec) mean ± s.e.m.,rat [2]; 0.08 mg/kg s.c.,22.03 ± 5.8 s
same,Effect on period of immobility (in words),"rat [2]; s.c., rat",reduces the period of immobility of the animal in dose-dependent manner
same,Contralateral rotations mean ± s.e.m.,[3]; 0.00063 mg/kg s.c.,157.4 ± 32.1
same,Contralateral rotations mean ± s.e.m.,[3]; 0.0025 mg/kg s.c.,337.3 ± 48.3
same,Contralateral rotations mean ± s.e.m.,[3]; 0.01 mg/kg s.c.,553.8 ± 138.3
same,Dose from which the product is active in the rotation test,[3]; s.c.,≥ 2.5 µg/kg
same,Neuron discharge frequency,[4]; 0.125 μg/kg i.v.,91.8 ± 5.2%
same,Neuron discharge frequency,[4]; 0.25 μg/kg i.v.,79.9 ± 5.9 %
same,Neuron discharge frequency,[4]; 0.5 μg/kg i.v.,66.3 ± 5.9 %
same,Neuron discharge frequency,[4]; 1.0 μg/kg i.v.,42.0 ± 7.3 %
same,Neuron discharge frequency,[4]; 2.0 μg/kg i.v.,10.8 ± 8.7 %
same,Neuron discharge frequency,[4]; 4.0 μg/kg i.v.,2.3 ± 2.3 %
same,Neuron discharge frequency,[4]; 8.0 μg/kg i.v.,0.0 ± 0.0 %
"CN1CCc2cccc3c2[C@H]1Cc1ccc(O)c(O)c1-3 [Apomorphine, apomorphine, reference compound]",Contralateral rotations mean ± s.e.m.,[3]; 0.02 mg/kg s.c.,497.2 ± 91.4
"CCCN1CCO[C@@H]2c3cc4c(cc3CC[C@H]21)COC4=O [Example 4, (4aR,11bR)-4-Propyl-2,3,4,4a,5,6,8,11b-octahydro-10H-furo[3′,4′:6,7]-naphtho[1,2-b][1,4]oxazin-10-one]",Ki,[5],2000 nM
"CCCN1CCO[C@@H]2c3cc4c(cc3CC[C@H]21)CCOC4=O [Example 5, (4aR,12bR)-4-Propyl-3,4,4a,5,6,8,9,12b-octahydro-2H,11H-pyrano-[4′,3′:6,7]naphtho[1,2-b][1,4]oxazin-11-one]",Ki,[6],126 nM
same,Ki,[5],1580 nM
"CCCN1CCO[C@@H]2c3cc4c(cc3CC[C@H]21)CCNC4=O [Example 6, (4aR,12bR)-4-Propyl-2,3,4,4a,5,6,8,9,10,12b-decahydro-11H-isoquino-[6,7-h][1,4]benzoxazin-11-one]",Ki,[5],794 nM
"CCCN1CCO[C@@H]2c3cc4c(=O)[nH]ccc4cc3CC[C@H]21 [Example 8, (4aR,12bR)-4-Propyl-2,3,4,4a,5,6,10,12b-octahydro-11H-isoquino-[6,7-h][1,4]benzoxazin-11-one]",Ki,[5],1260 nM
